# Test results as given in the supplement of paper PMC10307832.
# Experiments:
# Experiment in all cases: relative viability (nuclei count vs DMSO), 5 days (fraction); higher = more cells survive
# COR-L 105 = tested on: COR-L 105
# Procedure, shortened: (§1)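 Relative viability divides the nuclei count in treated wells by that in vehicle wells. Lung cancer cell lines were seeded in 1536-well plates, dosed by pin tool the next day, and fixed and stained after 5 days in one step with final 0.05% Triton X-100, 1% formaldehyde and 1 ug/ml Hoechst. Dosing was a single drug or a fixed anchor-drug dose plus five library-drug doses (not always all listed) in √10 steps, and values are medians of duplicate plates imaged at 4×.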
# COR-L23 = tested on: COR-L23
# Procedure, shortened: as §1
# HARA = tested on: HARA
# Procedure, shortened: as §1
# HCC-15 = tested on: HCC-15
# Procedure, shortened: as §1
# HOP-62 = tested on: HOP-62
# Procedure, shortened: as §1
# NCI-H1355 = tested on: NCI-H1355
# Procedure, shortened: as §1
# NCI-H1395 = tested on: NCI-H1395
# Procedure, shortened: as §1
# NCI-H1734 = tested on: NCI-H1734
# Procedure, shortened: as §1
# NCI-H1755 = tested on: NCI-H1755
# Procedure, shortened: as §1
# NCI-H1792 = tested on: NCI-H1792
# Procedure, shortened: as §1
# NCI-H1793 = tested on: NCI-H1793
# Procedure, shortened: as §1
# NCI-H1993 = tested on: NCI-H1993
# Procedure, shortened: as §1
# NCI-H2009 = tested on: NCI-H2009
# Procedure, shortened: as §1
# NCI-H2170 = tested on: NCI-H2170
# Procedure, shortened: as §1
# NCI-H2228 = tested on: NCI-H2228
# Procedure, shortened: as §1
# NCI-H2347 = tested on: NCI-H2347
# Procedure, shortened: as §1
# NCI-H358 = tested on: NCI-H358
# Procedure, shortened: as §1
# NCI-H647 = tested on: NCI-H647
# Procedure, shortened: as §1
# NCI-H838 = tested on: NCI-H838
# Procedure, shortened: as §1
# SK-MES-1 = tested on: SK-MES-1
# Procedure, shortened: as §1
# UMC-11 = tested on: UMC-11
# Procedure, shortened: as §1
smiles,measurement,setting,value
O=c1cc(-c2cccc3c2Sc2ccccc2S3)oc(N2CCOCC2)c1 + Cc1nc(NC(=O)N2CCC[C@H]2C(N)=O)sc1-c1ccnc(C(C)(C)C(F)(F)F)c1 [Alpelisib] (partner 2 µM),relative viability,COR-L 105; first compound 0.08 µM,1.1
same,relative viability,COR-L 105; first compound 0.253 µM,1.13
same,relative viability,COR-L 105; first compound 0.8 µM,0.862
same,relative viability,COR-L 105; first compound 2.53 µM,0.902
same,relative viability,COR-L 105; first compound 8 µM,1.12
same,relative viability,COR-L23; first compound 0.08 µM,0.867
same,relative viability,COR-L23; first compound 0.253 µM,1.15
same,relative viability,COR-L23; first compound 0.8 µM,0.887
same,relative viability,COR-L23; first compound 2.53 µM,0.786
same,relative viability,COR-L23; first compound 8 µM,0.984
same,relative viability,HARA; first compound 0.08 µM,0.754
same,relative viability,HARA; first compound 0.253 µM,0.748
same,relative viability,HARA; first compound 0.8 µM,0.719
same,relative viability,HARA; first compound 2.53 µM,0.81
same,relative viability,HARA; first compound 8 µM,0.584
same,relative viability,HCC-15; first compound 0.08 µM,0.896
same,relative viability,HCC-15; first compound 0.253 µM,1.05
same,relative viability,HCC-15; first compound 0.8 µM,0.89
same,relative viability,HCC-15; first compound 2.53 µM,0.797
same,relative viability,HCC-15; first compound 8 µM,0.922
same,relative viability,HOP-62; first compound 0.08 µM,0.962
same,relative viability,HOP-62; first compound 0.253 µM,0.85
same,relative viability,HOP-62; first compound 0.8 µM,1.01
same,relative viability,HOP-62; first compound 2.53 µM,0.908
same,relative viability,HOP-62; first compound 8 µM,1.18
same,relative viability,NCI-H1355; first compound 0.08 µM,0.726
same,relative viability,NCI-H1355; first compound 0.253 µM,0.949
same,relative viability,NCI-H1355; first compound 0.8 µM,0.601
same,relative viability,NCI-H1355; first compound 2.53 µM,0.748
same,relative viability,NCI-H1355; first compound 8 µM,0.704
same,relative viability,NCI-H1395; first compound 0.08 µM,1.13
same,relative viability,NCI-H1395; first compound 0.253 µM,1.13
same,relative viability,NCI-H1395; first compound 0.8 µM,1.19
same,relative viability,NCI-H1395; first compound 2.53 µM,0.907
same,relative viability,NCI-H1395; first compound 8 µM,1.05
same,relative viability,NCI-H1734; first compound 0.08 µM,0.595
same,relative viability,NCI-H1734; first compound 0.253 µM,0.841
same,relative viability,NCI-H1734; first compound 0.8 µM,0.729
same,relative viability,NCI-H1734; first compound 2.53 µM,0.662
same,relative viability,NCI-H1734; first compound 8 µM,0.706
same,relative viability,NCI-H1755; first compound 0.08 µM,0.889
same,relative viability,NCI-H1755; first compound 0.253 µM,1.22
same,relative viability,NCI-H1755; first compound 0.8 µM,0.945
same,relative viability,NCI-H1755; first compound 2.53 µM,0.925
same,relative viability,NCI-H1755; first compound 8 µM,0.964
same,relative viability,NCI-H1792; first compound 0.253 µM,0.722
same,relative viability,NCI-H1792; first compound 0.8 µM,0.741
same,relative viability,NCI-H1792; first compound 2.53 µM,0.674
same,relative viability,NCI-H1792; first compound 8 µM,0.712
same,relative viability,NCI-H1793; first compound 0.08 µM,0.498
same,relative viability,NCI-H1793; first compound 0.253 µM,0.782
same,relative viability,NCI-H1793; first compound 0.8 µM,0.692
same,relative viability,NCI-H1793; first compound 2.53 µM,0.55
same,relative viability,NCI-H1793; first compound 8 µM,0.689
same,relative viability,NCI-H1993; first compound 0.08 µM,0.735
same,relative viability,NCI-H1993; first compound 0.253 µM,0.687
same,relative viability,NCI-H1993; first compound 0.8 µM,0.69
same,relative viability,NCI-H1993; first compound 2.53 µM,0.68
same,relative viability,NCI-H1993; first compound 8 µM,0.718
same,relative viability,NCI-H2009; first compound 0.08 µM,1.18
same,relative viability,NCI-H2009; first compound 0.253 µM,1.27
same,relative viability,NCI-H2009; first compound 0.8 µM,1.18
same,relative viability,NCI-H2009; first compound 2.53 µM,1.14
same,relative viability,NCI-H2009; first compound 8 µM,0.811
same,relative viability,NCI-H2170; first compound 0.08 µM,0.791
same,relative viability,NCI-H2170; first compound 0.253 µM,0.835
same,relative viability,NCI-H2170; first compound 0.8 µM,0.933
same,relative viability,NCI-H2170; first compound 2.53 µM,0.747
same,relative viability,NCI-H2170; first compound 8 µM,0.841
same,relative viability,NCI-H2228; first compound 0.08 µM,0.75
same,relative viability,NCI-H2228; first compound 0.253 µM,0.846
same,relative viability,NCI-H2228; first compound 0.8 µM,0.828
same,relative viability,NCI-H2228; first compound 2.53 µM,0.561
same,relative viability,NCI-H2228; first compound 8 µM,0.737
same,relative viability,NCI-H2347; first compound 0.08 µM,1.03
same,relative viability,NCI-H2347; first compound 0.253 µM,1.14
same,relative viability,NCI-H2347; first compound 0.8 µM,1.1
same,relative viability,NCI-H2347; first compound 2.53 µM,1.11
same,relative viability,NCI-H2347; first compound 8 µM,1.16
same,relative viability,NCI-H358; first compound 0.08 µM,0.776
same,relative viability,NCI-H358; first compound 0.253 µM,0.824
same,relative viability,NCI-H358; first compound 0.8 µM,0.816
same,relative viability,NCI-H358; first compound 2.53 µM,0.786
same,relative viability,NCI-H358; first compound 8 µM,0.795
same,relative viability,NCI-H647; first compound 0.08 µM,1.4
same,relative viability,NCI-H647; first compound 0.253 µM,1.47
same,relative viability,NCI-H647; first compound 0.8 µM,1.31
same,relative viability,NCI-H647; first compound 2.53 µM,0.869
same,relative viability,NCI-H647; first compound 8 µM,0.977
same,relative viability,NCI-H838; first compound 0.08 µM,0.967
same,relative viability,NCI-H838; first compound 0.253 µM,1.33
same,relative viability,NCI-H838; first compound 0.8 µM,0.951
same,relative viability,NCI-H838; first compound 2.53 µM,0.903
same,relative viability,NCI-H838; first compound 8 µM,1.06
same,relative viability,SK-MES-1; first compound 0.08 µM,0.864
same,relative viability,SK-MES-1; first compound 0.253 µM,1.09
same,relative viability,SK-MES-1; first compound 0.8 µM,0.993
same,relative viability,SK-MES-1; first compound 2.53 µM,0.824
same,relative viability,SK-MES-1; first compound 8 µM,0.845
same,relative viability,UMC-11; first compound 0.08 µM,0.965
same,relative viability,UMC-11; first compound 0.253 µM,1.35
same,relative viability,UMC-11; first compound 0.8 µM,1.17
same,relative viability,UMC-11; first compound 2.53 µM,0.98
same,relative viability,UMC-11; first compound 8 µM,1.42
